Laboratory results: US20230174488A1 (priority 2020, published 2023)
pIC50: −log10 of the molar value.

Target: SARS-CoV-2 M^PRO (Severe acute respiratory syndrome coronavirus 2, UniProt P0DTD1)
Assay: biochemical
Type: biochemical
Conditions: In vitro potency data; 30 min pre-incubation, 25 nM M^pro, 25 µM substrate; read-out: IC50

| SMILES | pIC50 |
| --- | --- |
| O=C(NC1CCC(F)(F)CC1)[C@H](c1cnccn1)N(C(=O)CCl)c1ccc(-c2ccno2)cc1 (racemic) [INSCoV-601H, 2-Chloro-N-(2-((4,4-difluorocyclohexyl)amino)-2-oxo-1-(pyrazin-2-yl)ethyl)-N-(4-(isoxazol-5-yl)phenyl)acetamide] | 7.00 |
| O=C(NC1CCC(F)(F)CC1)[C@H](c1cncnc1)N(C(=O)[C@H](F)Cl)c1ccc(-c2cncs2)cc1 (single isomer, unassigned) [INSCoV-614(2B), 2-Chloro-N-(2-((4,4-difluorocyclohexyl)amino)-2-oxo-1-(pyrimidin-5-yl)ethyl)-2-fluoro-N-(4-(thiazol-5-yl)phenyl)acetamide] | 5.77 |
| O=C(NC1CCC(F)(F)CC1)C(c1cncnc1)N(C(=O)[C@@H]1CO1)c1ccc(-c2cnco2)cc1 (single isomer, unassigned) [INSCoV-600R(2A)] | 5.53 |
| O=C(NC1CCC(F)(F)CC1)[C@H](c1cncnc1)N(C(=O)[C@H](F)Cl)c1ccc(-c2cncs2)cc1 (single isomer, unassigned) [INSCoV-614(1A), 2-Chloro-N-(2-((4,4-difluorocyclohexyl)amino)-2-oxo-1-(pyrimidin-5-yl)ethyl)-2-fluoro-N-(4-(thiazol-5-yl)phenyl)acetamide] | < 4.60 |
| CC(C(=O)NC1CCC(F)(F)CC1)(c1cncnc1)N(C(=O)CCl)c1ccc(-c2ccno2)cc1 (stereo not drawn) [INSCoV-601P, 2-(2-Chloro-N-(4-(isoxazol-5-yl)phenyl)acetamido)-N-(4,4-difluorocyclohexyl)-2-(pyrimidin-5-yl)propanamide] | 6.42 |
| O=C(NC1CCC(F)(F)CC1)C(c1ccnnc1)N(C(=O)CCl)c1ccc(-c2ccns2)cc1 (racemic) [INSCoV-601J] | 6.92 |
| O=C(NC1CCCCC1)C(c1cccnc1)N(CCc1ccc(F)cc1)C(=O)CCl (stereo not drawn) [INSCoV-559, 2-Chloro-N-(2-(Cyclohexylamino)-2-Oxo-1-(Pyridin-3-yl)Ethyl)-N-(4-Fluorophenethyl)Acetamide] | 5.97 |
| Cc1ccc(CCN(C(=O)CCl)C(C(=O)NC2CCCCC2)c2cccnc2)cc1 (stereo not drawn) [INSCoV-503C] | 5.86 |
| CC(C(=O)NC1CCC(F)(F)CC1)(c1cnccn1)N(C(=O)CCl)c1ccc(-c2ccns2)cc1 (single isomer, unassigned) [INSCoV-601N(1), 2-(2-Chloro-N-(4-(isothiazol-5-yl)phenyl)acetamido)-N-(4,4-difluorocyclohexyl)-2-(pyrazin-2-yl)propanamide] | 6.89 |
| O=C(NC1CCC(F)(F)CC1)[C@H](c1cncnc1)N(CCc1cccc(F)c1)C(=O)C1CO1 (stereo partly drawn) [INSCoV-600Q(1)] | 4.65 |
| Cc1ccc(S(=O)(=O)CNC(=O)C(c2cnccn2)N(C(=O)CCl)c2ccc(-c3cnco3)cc2)cc1 (stereo not drawn) [INSCoV-501O, 2-Chloro-N-(4-(Oxazol-5-yl)Phenyl)-N-(2-Oxo-1-(Pyrazin-2-yl)-2-((Tosylmethyl)Amino)Ethyl)Acetamide] | 5.82 |
| CC(=O)c1ccc(NC(=O)[C@@H](c2cnccn2)N(C(=O)CCl)c2ccc(-c3ccns3)cc2)[nH]1 [INSCoV-601M] | 5.94 |
| Cc1ccccc1CCN(C(=O)CCl)C(C(=O)NC1CCCCC1)c1cccnc1 (stereo not drawn) [INSCoV-503A] | 5.58 |
| O=C(NC1CCC(F)(F)C1)C(c1cncnc1)N(C(=O)CCl)c1ccc(-c2cncs2)cc1 (stereo not drawn) [INSCoV-601S] | 7.05 |
| O=C(NC1CCCCC1)C(c1cccnc1)N(Cc1cccc(C(F)(F)F)c1)C(=O)CCl (stereo not drawn) [INSCoV-574, 2-Chloro-N-(2-(Cyclohexylamino)-2-Oxo-1-(Pyridin-3-yl)Ethyl)-N-(3-(Trifluoromethyl)Benzyl)Acetamide] | 5.90 |
| COC(=O)c1ccc(NC(=O)[C@H](c2cncnc2)N(C(=O)CCl)c2ccc(-c3cncs3)cc2)[nH]1 [INSCoV-601T] | 6.77 |
| O=C(NC1CCC(F)(F)CC1)C(c1cncnc1)N(C(=O)C1CO1)c1ccc(-c2ccno2)cc1 (stereo not drawn) [INSCoV-600Y, N-(2-((4,4-Difluorocyclohexyl)Amino)-2-Oxo-1-(Pyrimidin-5-yl)Ethyl)-N-(4-(Isoxazol-5-yl)Phenyl)Oxirane-2-Carboxamide] | 5.70 |
| O=C(NC1CCOCC1)C(c1cnccn1)N(C(=O)CCl)c1ccc(-c2cnco2)cc1 (stereo not drawn) [INSCoV-600A(3), 2-Chloro-N-(4-(Oxazol-5-yl)Phenyl)-N-(2-oxo-1-(Pyrazin-2-yl)-2-((Tetrahydro-2H-Pyran-4-yl)Amino)Ethyl)Acetamide] | 6.39 |
| O=C(NC1CCC(F)(F)CC1)C(c1cncnc1)N(C(=O)CCl)c1ccc(-c2cnco2)cc1 (stereo not drawn) [INSCoV-501I, 2-Chloro-N-(2-((4,4-difluorocyclohexyl)amino)-2-oxo-1-(pyrimidin-5-yl)ethyl)-N-(4-(oxazol-5-yl)phenyl)acetamide] | 6.41 |
| O=C(NC1CCC(F)(F)CC1)[C@H](c1cncnc1)N(C(=O)[C@H]1CO1)c1ccc(-c2cnco2)cc1 [INSCoV-600R(1A)] | < 4.60 |
| CN1CCC(NC(=O)C(c2cncnc2)N(C(=O)CCl)c2ccc(-c3cnco3)cc2)CC1 (stereo not drawn) [INSCoV-600M, 2-(N-(2-chloroacetyl)-4-oxazol-5-yl-anilino)-N-(1-methyl-4-piperidyl)-2-pyrimidin-5-yl-acetamide] | 6.30 |

| SMILES | pIC50 |
| --- | --- |
| O=C(NCCc1ccccc1)C(c1cnccn1)N(C(=O)CCl)c1ccc(-c2cnco2)cc1 (stereo not drawn) [INSCoV-501P, 2-Chloro-N-(4-(Oxazol-5-vl)Phenyl)-N-(2-Oxo-2-(Phenethylamino)-1-(Pyrazin-2-yl)Ethyl)Acetamide] | 6.25 |
| Cc1cc(-c2cccnc2)cc(F)c1NC(=O)C(c1cncnc1)N(C(=O)CCl)c1ccc(-c2cnco2)cc1 (stereo not drawn) [INSCoV-600X] | 5.86 |
| O=C(NC1CCCCC1)C(c1cccnc1)N(Cc1ccccc1C(F)(F)F)C(=O)CCl (stereo not drawn) [INSCoV-574A, 2-Chloro-N-(2-(Cyclohexylamino)-2-Oxo-1-(Pyridin-3-yl)Ethyl)-N-(2-(Trifluoromethyl)Benzyl)Acetamide] | 5.30 |
| O=C(N[C@H]1CCOC1)C(c1cnccn1)N(C(=O)CCl)c1ccc(-c2ccno2)cc1 (mixture of isomers) [INSCoV-601Q, 2-Chloro-N-(4-(isoxazol-5-yl)phenyl)-N-(2-oxo-1-(pyrazin-2-yl)-2-(((S)-tetrahydrofuran-3-yl)amino)ethyl)acetamid] | 6.82 |
| O=C(NC1CCC(F)(F)CC1)C(c1ccnnc1)N(C(=O)CCl)c1ccc(-c2ccno2)cc1 (stereo not drawn) [INSCoV-537K, 2-Chloro-N-(2-((4,4-Difluorocyclohexyl)Amino)-2-Oxo-1-(Pyridazin-4-yl)Ethyl)-N-(4-(Isoxazol-5-yl)Phenyl)Acetamide] | 6.44 |
| O=C(NC1CCOC1)[C@H](c1cncnc1)N(C(=O)CCl)c1ccc(-c2cncs2)cc1 (stereo partly drawn) [INSCoV-601R] | 6.92 |
| CC(C)(C)c1ccc(N(C(=O)CCl)C(C(=O)NC2CCCCC2)c2ccnnc2)cc1 (stereo not drawn) [INSCoV-537, N-(4-(Tert-Butyl)Phenyl)-2-Chloro-N-(2-(Cyclohexylamino)-2-Oxo-1-(Pyridazin-4-yl)Ethyl)Acetamide] | 6.38 |
| N#Cc1cc(OC(F)(F)F)ccc1N(C(=O)[C@H](F)Cl)[C@@H](C(=O)NC1CCC(F)(F)CC1)c1cncnc1 (single isomer, unassigned) [INSCoV-517C(4), 2-Chloro-N-(2-cyano-4-(trifluoromethoxy)phenyl)-N-(2-((4,4-difluorocyclohexyl)amino)-2-oxo-1-(pyrimidin-5-yl)ethyl)-2-fluoroacetamide] | < 4.60 |
| CC1(C)OCc2cc(N(C(=O)CCl)C(C(=O)Nc3cncc4ccccc34)c3ccno3)cnc21 (stereo not drawn) [INSCoV-704] | 4.71 |
| O=C(NC1CCC(F)(F)CC1)C(c1ccnnc1)N(C(=O)CCl)c1ccc(-c2cnco2)cc1 (stereo not drawn) [INSCoV-537I, 2-Chloro-N-(2-((4,4-Difluorocyclohexyl)Amino)-2-Oxo-1-(Pyridazin-4-yl)Ethyl)-N-(4-(Oxazol-5-yl)Phenyl)Acetamide] | 6.57 |
| O=C(N[C@H]1CCC(F)(F)C1)C(c1cncnc1)N(C(=O)CCl)c1ccc(-c2cnco2)cc1 (stereo partly drawn) [INSCoV-600B(2)] | 6.72 |
| O=C(N[C@H]1CCOC1)[C@@H](c1cncnc1)N(C(=O)CCl)c1ccc(-c2cnco2)cc1 [INSCoV-600C(1A)] | 6.47 |
| O=C(NC1CCCCC1)C(c1cccnc1)N(C(=O)CCl)c1ccc(Br)cc1F (stereo not drawn) [INSCoV-507] | 5.67 |
| O=C(NC1CCS(=O)(=O)CC1)C(c1cncnc1)N(C(=O)CCl)c1ccc(-c2cnco2)cc1 (stereo not drawn) [INSCoV-501B, 2-Chloro-N-(2-((1,1-Dioxidotetrahydro-2H-Thiopyran-4-yl)Amino)-2-Oxo-1-(Pyrimidin-5-yl)Ethyl)-N-(4-(Oxazol-5-yl)Phenyl)Acetamide] | 6.22 |
| O=C(NC1CCN(S(=O)(=O)C2CC2)CC1)C(c1cnccn1)N(C(=O)CCl)c1ccc(-c2cnco2)cc1 (stereo not drawn) [INSCoV-501R, 2-Chloro-N-(2-((1-(Cyclopropylsulfonyl)Piperidin-4-yl)Amino)-2-Oxo-1-(Pyrazin-2-yl)Ethyl)-N-(4-(Oxazol-5-yl)Phenyl)Acetamide] | 6.32 |
| O=C(NC1CCN(S(=O)(=O)C2CC2)CC1)C(c1cncnc1)N(C(=O)CCl)c1ccc(-c2cnco2)cc1 (stereo not drawn) [INSCoV-501H] | 6.14 |
| O=C(NC1CCCCC1)C(c1cccnc1)N(CCc1cccc(F)c1)C(=O)CCl (stereo not drawn) [INSCoV-558, 2-Chloro-N-(2-(Cyclohexylamino)-2-Oxo-1-(Pyridin-3-yl)Ethyl)-N-(3-Fluorophenethyl)Acetamide] | 6.48 |
| CC(C(=O)NC1CCC(F)(F)CC1)(c1cncnc1)N(C(=O)CCl)c1ccc(-c2ccno2)cc1 (single isomer, unassigned) [INSCoV-601P(1B), 2-(2-Chloro-N-(4-(isoxazol-5-yl)phenyl)acetamido)-N-(4,4-difluorocyclohexyl)-2-(pyrimidin-5-yl)propanamide] | 4.86 |
| O=C(NC1CCCCC1)C(c1cccnc1)N(CCc1cccc(Cl)c1)C(=O)CCl (stereo not drawn) [INSCoV-503E] | 6.18 |
| O=C(NC1CCC(F)(F)CC1)[C@@H](c1cncnc1)N(C(=O)[C@H](F)Cl)c1ccc(-c2ccno2)cc1 (single isomer, unassigned) [INSCoV-614A(2B), 2-Chloro-N-(2-((4,4-difluorocyclohexyl)amino)-2-oxo-1-(pyrimidin-5-yl)ethyl)-2-fluoro-N-(4-(isoxazol-5-yl)phenyl)acetamide] | 5.04 |
| N#Cc1cc(OC(F)(F)F)ccc1N(C(=O)CCl)[C@@H](C(=O)NC1CCCCC1)c1cccnc1 [INSCoV-517(1)] | 7.10 |
